Reference: paper PMC7238241, “Lack of Correlation between In Vitro and In Vivo Studies on the Inhibitory Effects of (‒)-Sophoranone on CYP2C9 Is Attributable to Low Oral Absorption and Extensive Plasma Protein Binding of (‒)-Sophoranone” (Pharmaceutics, 2020)
“And” between values parts separate entries of the source, which are not always exact repeats. Equal entries are not always repeated.

Experiments:
CYP2C9 = molecular target: T1, CYP2C9 (Homo sapiens, UniProt P11712); assay: Reversible CYP2C9 inhibition, cocktail assay (tolbutamide 4-hydroxylase) in human liver microsomes; assay type: biochemical; details: human liver microsomes 0.1 mg/mL, tolbutamide probe, n = 3
T1 construct: tissue Corning Life Sciences; host or cells: pooled human liver microsomes, 150 donors
Description: The inhibitory effects of SPN on CYP1A2, CYP2A6, CYP2B6, CYP2C8, CYP2C9, CYP2C19, CYP2D6, CYP2E1, and CYP3A4 were evaluated in pooled human liver microsomes through the use of specific CYP probe substrates (cocktail assay), as previously described with a slight modification. Concentrations of each CYP probe in Table 1 were used close to their reported Km values.
Briefly, a 90-µL incubation mixture, including pooled human liver microsomes (final concentration 0.1 mg/mL), 50 mM phosphate buffer (pH 7.4), each CYP-probe substrate cocktail set, and SPN (0–50 μM), was pre-incubated for 5 min at 37 °C. SPN was dissolved in methanol and spiked into the incubation mixture to a final concentration of 0.5% methanol. […]
The IC50 values were calculated via nonlinear least-squares regression analysis from logarithmic plots of inhibitor concentration versus percentage of activity remaining after inhibition, using SigmaPlot (ver. 14.0; Systat Software Inc, Chicago, IL, USA). The Ki values were determined from the equations for a single substrate single inhibitor model and the software available in the SigmaPlot Enzyme Kinetics module. Competitive, non-competitive, uncompetitive, or mixed inhibition models were evaluated and ranked according to the best fit based on Akaike Information Criterion (AIC) values. […]

[1] = Unbound fraction in rat plasma (rapid equilibrium dialysis); assay type: in vitro ADME
Description: The plasma or liver microsomal protein bindings were performed using a rapid equilibrium dialysis device and cellulose membranes with a molecular weight cutoff of 8000 (Thermo Scientific, Rockford, IL, USA). The rat and human plasma samples (200 μL) containing SPN at 10 and 50 μM, respectively, were dialyzed against a dialysis buffer, phosphate-buffered saline (PBS, 400 μL). The loaded dialysis plate was covered with sealing tape, placed on an orbital shaker at approximately 200 rpm, and incubated at 37 °C for 4 h. Thereafter, samples (100 μL) from both PBS and plasma chambers were collected and mixed with an equal volume of blank plasma and PBS, respectively. All samples were stored at −80 °C until LC-MS/MS analysis. The unbound fraction of SPN in human (or rat) plasma was calculated by dividing the SPN concentration in PBS by that in plasma.

[2] = Effects of SPN on the pharmacokinetics of diclofenac in rats; details: rats
Description: The carotid arteries of each rat were cannulated with a polyethylene tube (Clay Adams, Franklin Lakes, NJ, USA) for blood sampling. Each rat was individually housed in a rat metabolic cage and allowed to recover from anesthesia for 4–5 h prior to the start of the experiment. […] SPN was suspended in dimethylsulfoxide:PEG400:distilled water (5:60:35, v/v/v) and administered by oral gavage at a dose of 75 mg/kg in a volume of 5 mL/kg. […] The blood samples were immediately centrifuged at 13,000× g for 5 min at 4 °C. The plasma samples were divided into two Eppendorf tubes by 50 μL and stored at −80 °C until LC-MS/MS analysis.
Briefly, 50 μL aliquots of plasma were extracted with 300 μL aliquots of acetonitrile containing chlorpropamide (internal standard), followed by LC-MS/MS (Shimadzu Corporation). Chromatographic separation was performed on a Phenomenex Luna C18 column (100 × 2.00 mm; 3.0 μm). The isocratic mobile phase consisted of 0.1% formic acid in distilled water (A) and 0.1% formic acid in acetonitrile (B) (45:55, v/v), with a flow rate of 0.3 mL/min. […] The data acquisition was computed using LabSolutions LCMS Ver.5.6 (Shimadzu Corporation).
Pharmacokinetic parameters were calculated by a non-compartmental analysis using WinNonlin Professional software (version 5.2, Pharsight Corp., Mountain View, CA, USA) that used the total area under the plasma concentration–time curve from time zero to infinity (AUC∞) or the last measured time (AUCt). The logarithmic trapezoidal rule was used during the declining plasma level phase and the linear trapezoidal rule was used for the rising plasma-level phase. The peak plasma concentration (Cmax) and time to reach Cmax (Tmax) were read directly from the experimental data. Statistically significant differences were recognized at p < 0.05.

T1 sequence (P11712 whole entry): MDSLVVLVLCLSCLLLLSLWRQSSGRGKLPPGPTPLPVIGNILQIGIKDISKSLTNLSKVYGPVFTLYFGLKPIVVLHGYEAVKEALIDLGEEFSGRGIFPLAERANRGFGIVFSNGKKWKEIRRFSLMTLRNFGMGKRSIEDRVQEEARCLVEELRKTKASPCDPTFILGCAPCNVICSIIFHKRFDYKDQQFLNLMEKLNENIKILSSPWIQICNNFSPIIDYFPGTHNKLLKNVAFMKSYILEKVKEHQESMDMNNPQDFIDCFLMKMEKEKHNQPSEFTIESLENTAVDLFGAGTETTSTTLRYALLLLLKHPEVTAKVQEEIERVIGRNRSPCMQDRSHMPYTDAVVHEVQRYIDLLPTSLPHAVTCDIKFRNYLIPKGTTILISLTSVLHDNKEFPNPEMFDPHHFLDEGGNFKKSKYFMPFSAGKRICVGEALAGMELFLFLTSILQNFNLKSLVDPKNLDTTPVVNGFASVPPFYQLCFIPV

With `CC(C)=CCc1cc([C@@H]2CC(=O)c3ccc(O)c(CC=C(C)C)c3O2)cc(CC=C(C)C)c1O` [SPN, (‒)-Sophoranone] the IC50 (CYP2C9) was 966 ± 149 nM, the fraction unbound at 4 h, 10 µM ([1]; 10 μM, 37 °C, 4 h, n = 3, read-out: free fraction in rat plasma) was 0.00038 ± 0.000102 and the fraction unbound at 4 h, 50 µM ([1]; 50 μM, 37 °C, 4 h, n = 3, read-out: free fraction in rat plasma) was 0.000531 ± 0.000149. For the same molecule, the fraction unbound at 4 h ([1]; 10 and 50 μM, read-out: plasma protein binding, rat) was under 0.001, the Cmax ([2]; male, Sprague-Dawley, rat, plasma, po, Cmax of SPN, oral SPN 75 mg/kg co-administered with diclofenac 2 mg/kg, n = 6) was 33.7 ng/mL and 73.2 nM and the “effect of co-administration on the pharmacokinetics of diclofenac and 4′-hydroxydiclofenac” value ([2]; oral SPN 75 mg/kg 15 min before oral diclofenac 2 mg/kg) was “did not alter the pharmacokinetics of diclofenac and 4′-hydroxydiclofenac”. For the same molecule, the “Imax,u (unbound maximum concentration in plasma)” value ([2]; oral SPN 75 mg/kg, Cmax corrected for plasma protein binding) was 0.0420 ± 0.0184 nM.
